Measurements taken from paper PMC4468202, “Improved Visualization and Specific Binding for Metabotropic Glutamate Receptor Subtype 1 (mGluR1) Using [^11C]ITMM with Ultra-High Specific Activity in Small-Animal PET” (PLoS ONE, 2015).
Where two headings read alike, the source gives them in different places.

How the values were obtained:
[1] = target: mGluR1 (Rattus norvegicus, UniProt P23385); assay: Estimation of equilibrium state from tissue-to-plasma concentration ratios C t'(t)/C P'(t); format: in vivo; set-up: from tissue; host or cells: living SD rat brain (in vivo PET)
Procedure: Estimations of the equilibrium state of [^11C]ITMM in each brain region were obtained using averaged plasma input functions and averaged tissue TACs. Theoretical radioactive concentrations in each brain region (C t ’) and the plasma input function of [^11C]ITMM (C P ’) were estimated using averaged measurements extracted between 5 and 90 min after the injection and subjected to three exponential least square fitting [Radioactivity (t) = A*exp(-at) + B*exp(-bt) + C*exp(-ct)].
The estimations over 90 min after the injection were calculated by extrapolating based on the equation as described above. […]

[2] = Metabolite analysis: fraction of unchanged [^11C]ITMM in the plasma; format: in vivo, rat; conditions: for unchanged [^11C]ITMM in the plasma: the two SAs
Procedure: A bolus (0.5 mL) of [^11C]ITMM with conventional or ultra-high SA was injected for 10 s via a catheter inserted in the tail vein. Dynamic emission scans in three-dimensional list mode were performed for 90 min (10 s x 12 frames, 20 s x 3 frames, 30 s x 3 frames, 60 s x 3 frames, 150 s x 3 frames, and 300 s x 15 frames). For counting radioactivity, blood samples were manually acquired at intervals of 10 s (0.05 mL for 50 s), 1-min intervals (0.05 mL for 5 min), and then at 10 (0.05 mL), 15 (0.2 mL), 30 (0.3 mL), 60 (0.4 mL), and 90 min (0.5 mL) after the PET scan started. For metabolite analysis, six samples of blood were obtained at 1 (0.02 mL), 5 (0.02 mL), 15 (0.05 mL), 30 (0.1 mL), 60 (0.2 mL), and 90 min (0.3 mL) after the injection. Blood samples were centrifuged at 13,000g at 4°C to separate the plasma. Levels of radioactivity in the whole blood and plasma were counted using a 1480 Wizard auto-gamma scintillation counter (Perkin-Elmer, Waltham, MA, USA). The radioactivity was corrected for decay.
Metabolite analysis was performed as described previously. Briefly, whole blood samples were treated to separate the plasma, which was deproteinized with an equivalent amount of acetonitrile. An aliquot of the supernatant obtained from the plasma was analyzed by HPLC with a radiation detector [23]. Plasma protein binding was not determined in the present study. The time curves for the fraction of unchanged [^11C]ITMM in the plasma were fitted using three exponential equations, and subsequently used for kinetic analysis.

[3] = system: mGluR1; set-up: method as in PMID 23804329; conditions: cited from earlier work; for total distribution volume (V T): human brain

mGluR1 (Rattus norvegicus, UniProt P23385), sequence (P23385 19-1199): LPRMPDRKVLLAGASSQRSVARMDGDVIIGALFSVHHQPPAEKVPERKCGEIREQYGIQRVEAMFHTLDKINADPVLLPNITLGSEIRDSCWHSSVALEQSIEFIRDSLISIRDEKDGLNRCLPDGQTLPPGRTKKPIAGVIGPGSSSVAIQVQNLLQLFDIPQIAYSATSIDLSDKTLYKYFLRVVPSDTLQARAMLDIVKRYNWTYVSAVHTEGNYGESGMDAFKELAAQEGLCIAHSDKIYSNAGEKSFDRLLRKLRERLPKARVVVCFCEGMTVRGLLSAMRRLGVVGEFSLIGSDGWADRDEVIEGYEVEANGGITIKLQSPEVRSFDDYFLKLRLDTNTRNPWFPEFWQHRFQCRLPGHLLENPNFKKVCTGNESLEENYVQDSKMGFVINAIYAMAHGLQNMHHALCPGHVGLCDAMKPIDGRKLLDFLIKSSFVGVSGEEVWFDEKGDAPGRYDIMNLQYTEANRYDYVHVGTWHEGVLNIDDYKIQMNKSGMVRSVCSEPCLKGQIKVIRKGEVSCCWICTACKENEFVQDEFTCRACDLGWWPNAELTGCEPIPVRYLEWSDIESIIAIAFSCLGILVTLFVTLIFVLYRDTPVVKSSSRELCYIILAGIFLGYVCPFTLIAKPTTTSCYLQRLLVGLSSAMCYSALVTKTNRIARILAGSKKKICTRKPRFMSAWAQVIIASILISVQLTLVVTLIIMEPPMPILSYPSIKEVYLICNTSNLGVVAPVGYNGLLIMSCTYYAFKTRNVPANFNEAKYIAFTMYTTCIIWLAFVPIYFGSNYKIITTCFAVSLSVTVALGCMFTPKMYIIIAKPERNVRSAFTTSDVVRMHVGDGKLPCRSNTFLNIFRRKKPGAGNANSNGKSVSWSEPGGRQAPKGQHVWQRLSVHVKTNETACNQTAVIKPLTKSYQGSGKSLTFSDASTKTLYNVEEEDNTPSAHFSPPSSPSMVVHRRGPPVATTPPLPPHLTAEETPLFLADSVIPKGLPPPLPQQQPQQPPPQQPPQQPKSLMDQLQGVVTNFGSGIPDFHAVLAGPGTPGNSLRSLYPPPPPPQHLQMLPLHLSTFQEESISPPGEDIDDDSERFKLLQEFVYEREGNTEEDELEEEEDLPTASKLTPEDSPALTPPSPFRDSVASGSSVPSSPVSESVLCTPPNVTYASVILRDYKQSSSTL

Q: With `CC(C)Nc1cc(-c2csc(N(C)C(=O)c3ccc(O[11CH3])cc3)n2)ncn1` [[^11C]ITMM, N-[4-[6-(isopropylamino)pyrimidin-4-yl]-1,3-thiazol-2-yl]-4-[^11C]methoxy-N-methyl-benzamide] as the compound, how does the “bindings reached, of the equilibrium state” value ([1]; both SA conditions, all brain regions, 90 min PET) read?
A: 80–98%

Q: What about the equilibrium times ([1]; both SA conditions, all brain regions, after the injection) of the same compound?
A: 100 to 150 min

Q: And the estimated equilibrium time ([1]; cerebellum, conventional SA)?
A: 150 min

Q: And the “uptake of radioactivity reached, of equilibrium state” value (“uptake of radioactivity reached” below) ([1]; cerebellum, conventional SA, 90 min PET)?
A: 80%

Q: What about the estimated equilibrium time ([1]; cerebellum, ultra-high SA) of the same compound?
A: 150 min

Q: What about the “uptake of radioactivity reached” value ([1]; cerebellum, ultra-high SA, 90 min PET) of the same compound?
A: 82%

Q: And the estimated equilibrium time ([1]; cingulate cortex, conventional SA)?
A: 100 min

Q: And the “uptake of radioactivity reached” value ([1]; cingulate cortex, conventional SA, 90 min PET)?
A: 96%

Q: And the estimated equilibrium time ([1]; cingulate cortex, ultra-high SA)?
A: 120 min

Q: And the “uptake of radioactivity reached” value ([1]; cingulate cortex, ultra-high SA, 90 min PET)?
A: 91%

Q: What about the estimated equilibrium time ([1]; hippocampus, conventional SA) of the same compound?
A: 120 min

Q: And the “uptake of radioactivity reached” value ([1]; hippocampus, conventional SA, 90 min PET)?
A: 93%

Q: What about the estimated equilibrium time ([1]; hippocampus, ultra-high SA) of the same compound?
A: 130 min

Q: What about the “uptake of radioactivity reached” value ([1]; hippocampus, ultra-high SA, 90 min PET) of the same compound?
A: 89%

Q: What about the estimated equilibrium time ([1]; pons, conventional SA) of the same compound?
A: 110 min

Q: And the “uptake of radioactivity reached” value ([1]; pons, conventional SA, 90 min PET)?
A: 94%

Q: What about the estimated equilibrium time ([1]; pons, ultra-high SA) of the same compound?
A: 100 min

Q: And the “uptake of radioactivity reached” value ([1]; pons, ultra-high SA, 90 min PET)?
A: 98%

Q: And the estimated equilibrium time ([1]; striatum, conventional SA)?
A: 120 min

Q: What about the “uptake of radioactivity reached” value ([1]; striatum, conventional SA, 90 min PET) of the same compound?
A: 93%

Q: And the estimated equilibrium time ([1]; striatum, ultra-high SA)?
A: 130 min

Q: And the “uptake of radioactivity reached” value ([1]; striatum, ultra-high SA, 90 min PET)?
A: 90%

Q: What about the estimated equilibrium time ([1]; substantia nigra, conventional SA) of the same compound?
A: 110 min

Q: What about the “uptake of radioactivity reached” value ([1]; substantia nigra, conventional SA, 90 min PET) of the same compound?
A: 94%

Q: What about the estimated equilibrium time ([1]; substantia nigra, ultra-high SA) of the same compound?
A: 100 min

Q: And the “uptake of radioactivity reached” value ([1]; substantia nigra, ultra-high SA, 90 min PET)?
A: 98%

Q: What about the estimated equilibrium time ([1]; thalamus, conventional SA) of the same compound?
A: 120 min

Q: And the “uptake of radioactivity reached” value ([1]; thalamus, conventional SA, 90 min PET)?
A: 91%

Q: And the estimated equilibrium time ([1]; thalamus, ultra-high SA)?
A: 140 min

Q: And the “uptake of radioactivity reached” value ([1]; thalamus, ultra-high SA, 90 min PET)?
A: 87%

Q: What about the “Unchanged form in the plasma” value ([2]; 1 min after injection, conventional SA) of the same compound?
A: 95.2 ± 1.2%

Q: What about the “Unchanged form in the plasma” value ([2]; 1 min after injection, ultra-high SA) of the same compound?
A: 97.3 ± 0.6%

Q: And the “Unchanged form in the plasma” value ([2]; 5 min after injection, conventional SA)?
A: 74.0 ± 2.1%

Q: What about the “Unchanged form in the plasma” value ([2]; 5 min after injection, ultra-high SA) of the same compound?
A: 77.1 ± 3.2%

Q: And the “Unchanged form in the plasma” value ([2]; 15 min after injection, conventional SA)?
A: 53.7 ± 2.6%

Q: What about the “unchanged [^11C]ITMM in the plasma” value ([2]; 15 min after injection) of the same compound?
A: roughly 55%

Q: And the “Unchanged form in the plasma” value ([2]; 15 min after injection, ultra-high SA)?
A: 56.2 ± 4.0%

Q: And the “Unchanged form in the plasma” value ([2]; 30 min after injection, conventional SA)?
A: 36.8 ± 2.6%

Q: What about the “Unchanged form in the plasma” value ([2]; 30 min after injection, ultra-high SA) of the same compound?
A: 40.0 ± 4.0%

Q: What about the “Unchanged form in the plasma” value ([2]; 60 min after injection, conventional SA) of the same compound?
A: 21.7 ± 2.0%

Q: What about the “Unchanged form in the plasma” value ([2]; 60 min after injection, ultra-high SA) of the same compound?
A: 24.7 ± 2.9%

Q: And the “Unchanged form in the plasma” value ([2]; 90 min after injection, conventional SA)?
A: 15.7 ± 1.3%

Q: What about the “unchanged [^11C]ITMM in the plasma” value ([2]; 90 min after injection) of the same compound?
A: roughly 15%

Q: And the “Unchanged form in the plasma” value ([2]; 90 min after injection, ultra-high SA)?
A: 18.2 ± 2.5%

Q: What about the “[^11C]ITMM that reached the brain” value ([3]; healthy humans, first-in human PET study) of the same compound?
A: 0.001–0.004 % of the injection dose/mL

Q: What about the “total distribution volume (V T)” value ([3]; cerebellum (mGluR1-rich region)) of the same compound?
A: 2.61 mL/cm^3

Q: And the “total distribution volume (V T)” value ([3]; pons (mGluR1-negligible region))?
A: 0.52 mL/cm^3
